From US11345710B2, “Imidazo[1,2-b]pyrimido[4,5-d]pyridazin-5(6H)-ones and the use thereof” (IMPACT THERAPEUTICS (SHANGHAI), INC, priority 2017, dated 2022)
pIC50: −log10 of the molar value. Like-named read-outs stand apart in the source and are kept apart here.

Columns and labels:
LoVo cells = assay: MTT based cell viability assay on LoVo cells; details: Homo sapiens, 72 h, read-out: IC50, growth inhibition on LoVo cells
Protocol: Determination of the Cell Growth Inhibiting Activity of 6-(2,6-dichlorophenyl)-2-((4-(4-methylpiperazin-1-yl)phenyl)amino)imidazo[1,2-b]pyrimido[4,5-d]pyridazin-5(6H)-one and Analogs Thereof on LoVo Cells Using a MTT Based Cell Viability Assay
The thawed LoVo cells were cultured and passaged to the third generation, and the growth state was good and the confluence was about 90%, which began to be used in the experiment. The LoVo cells were digested with trypsin, centrifuged at 800 rpm for 5 min, the supernatant was discarded, resuspended with fresh culture medium, and counted. 6000 Cells are seeded to each well of a 96-well cell culture plate. The cells were incubated at 37° C. in a 5% CO2 cell culture incubator overnight. The tested sample (including the tested compound and the reference compound AZD1775) was diluted continuously to 8 concentrations (the last concentration was negative control of DMSO) with a 1:3 and 1:10 dilution in DMSO respectively: 10 μM, 3.3 μM, 1 μM, 0.33 μM, 0.1 μM, 0.033 μM, 0.01 μM, 0 μM (the final concentration of DMSO was 1%). 5 μL of each concentration was added to 120 μL of culture medium (25 times diluted), and the mixture was shaken well. The overnight cells were taken and the culture medium was removed, 195 μL of fresh culture medium was added to each well, and 5 μL of diluted culture medium containing the corresponding concentration of the tested sample was added respectively, and the culture plate was then placed in the 5% CO2 cell culture incubator at 37° C. for 3 d. After removing the original solution and adding 100 μL of fresh serum-free DMEM culture medium containing MTT (0.5 mg/mL) per well, the culture was continued. The original solution was removed after 4 hrs and 100 μl DMSO was added to each well. The 96-well cell culture plates were shaken away from light for 10 min and readed in a multifunctional reader at 552/630/690 nm to give absorption values (OD values). The data were analyzed using a graphic software (Graph Pad Prism 5.0) and the inhibitory activity of the compound on cell proliferation was plotted in terms of cell survival and compound concentration. The IC50 values were fitted by the S-shaped dose-response curve equation as follows: Y=100/(1+10^(Log C−Log IC50)), where C was the concentration of testing compounds.

NCI-H1299 cells = assay: MTT based cell viability assay on NCI-H1299 cells; details: Homo sapiens, read-out: IC50, growth inhibition on NCI-H1299 cells
Protocol: Determination of the Cell Growth Inhibiting Activity of 6-(2,6-dichlorophenyl)-2-((4-(4-methylpiperazin-1-yl)phenyl)amino)imidazo[1,2-b]pyrimido[4,5-d]pyridazin-5(6H)-one and Analogs on NCI-H1299 Cells Using a MTT Based Cell Viability Assay
The thawed NCI-H1299 cells were cultured and passaged to the third generation, and the growth state was good and the confluence was about 90%, which began to be used in the experiment. The NCI-H1299 cells were digested with trypsin, centrifuged at 800 rpm for 5 min, the supernatant was discarded, resuspended with fresh culture medium, and counted. 1000 Cells are seeded to each well of a 96-well plate. The cells are incubated at 37° C. in a 5% CO2 cell culture incubator overnight. The tested sample (including the tested compound and the reference compound AZD1775) was diluted continuously to 8 concentrations (the last concentration was negative control of DMSO) with a 1:3 and 1:10 dilution in DMSO respectively: 10 μM, 3.3 μM, 1 μM, 0.33 μM, 0.1 μM, 0.033 μM, 0.01 μM, 0 μM (the final concentration of DMSO was 1%). 5 μL of each concentration was added to 120 μL of culture medium (25 times diluted), and the mixture was shaken well. The overnight cells were taken and the culture medium was removed, 195 μL of fresh culture medium was added to each well, and 5 μL of diluted culture medium containing the corresponding concentration of the tested sample was added respectively, and the culture plate was then placed in the 5% CO2 cell culture incubator at 37° C. for 3 d. After removing the original solution and adding 100 μL of fresh serum-free DMEM culture medium containing MTT (0.5 mg/mL) per well, the culture was continued. The original solution was removed after 4 hrs and 100 μl DMSO was added to each well. The 96-well cell culture plates were shaken away from light for 10 min and readed in a multifunctional reader at 552/630/690 nm to give absorption values (OD values). The data were analyzed using a graphic software (Graph Pad Prism 5.0) and the inhibitory activity of the compound on cell proliferation was plotted in terms of cell survival and compound concentration. The IC50 values were fitted by the S-shaped dose-response curve equation as follows: Y=100/(1+10^(Log C−Log IC50)), where C was the concentration of testing compounds.

Wee1 kinase (h) = Wee1 kinase (h) (Homo sapiens, UniProt P30291); assay: Wee1 kinase (h) detection method, [γ-33P]-ATP filter assay; format: biochemical; details: 10 μM ATP, 40 minutes at room temperature
Protocol: Wee1 kinase (h) was incubated with 20 mM Tris/HCl pH 8.5, 0.2 mM EDTA, 500 μM […], 10 mM MgAcetate and 10 μM [γ-^33P]-ATP. Then the stock solution of all compounds under test with 50× concentration in 100% DMSO was added to make the final concentration of 1/0.1/0.01 μM, and then mixed the mixture well. The reaction was initiated by the addition of the Mg/ATP mix. After incubation for 40 minutes at room temperature, the reaction was stopped by the addition of phosphoric acid to a concentration of 0.5%. 10 μL of the reaction liquor was then spotted onto a P30 filtermat and washed four times in 0.425% phosphoric acid and once in methanol prior to drying and scintillation counting. Each compound sample was duplicated in duplicate. The negative control was lack of all the components of Wee1 enzyme, and the positive was addition of 30% phosphoric acid to terminate the reaction. The Wee1 inhibitor AZD1775 was detected at 10/0.01 μM at the same experiment condition.

[1] = 72 h, NCI-H1299 cells, 3 d, MTT

Sequence of Wee1 kinase (h) (P30291 whole entry): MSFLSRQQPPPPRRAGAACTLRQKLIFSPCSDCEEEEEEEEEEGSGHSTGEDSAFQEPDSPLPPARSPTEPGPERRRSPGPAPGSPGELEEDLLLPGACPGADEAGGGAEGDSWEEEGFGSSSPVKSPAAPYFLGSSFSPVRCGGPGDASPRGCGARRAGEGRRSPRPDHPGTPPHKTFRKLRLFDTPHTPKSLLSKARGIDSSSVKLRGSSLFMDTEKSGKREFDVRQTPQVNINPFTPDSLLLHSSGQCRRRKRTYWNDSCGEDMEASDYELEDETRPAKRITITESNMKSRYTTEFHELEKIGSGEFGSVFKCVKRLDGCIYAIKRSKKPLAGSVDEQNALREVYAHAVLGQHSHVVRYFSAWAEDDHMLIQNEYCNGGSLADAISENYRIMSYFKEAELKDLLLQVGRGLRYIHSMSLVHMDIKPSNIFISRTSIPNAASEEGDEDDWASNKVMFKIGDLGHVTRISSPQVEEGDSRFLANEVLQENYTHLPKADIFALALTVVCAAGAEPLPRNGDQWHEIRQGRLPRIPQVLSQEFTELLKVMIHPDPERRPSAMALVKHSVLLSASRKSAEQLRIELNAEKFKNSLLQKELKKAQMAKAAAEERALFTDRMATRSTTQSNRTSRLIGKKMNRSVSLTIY

SMILES: Cc1cc(Nc2ncc3c(=O)n(-c4c(Cl)cccc4Cl)n4ccnc4c3n2)cc(C)c1N1CCN(C)CC1 [Example 4, 6-(2,6-dichlorophenyl)-2-((3,5-dimethyl-4-(4-methylpiperazin-1-yl)phenyl)amino)imidazo[1,2-b]pyrimido[4,5-d]pyridazin-5(6H)-one]
- pIC50 (LoVo cells; LoVo): 6.47
- pIC50 (NCI-H1299 cells; NCI-H1299, 72 h): 6.42
- Inh. (%) of Wee1 kinase (Wee1 kinase (h); C 0.01 μm): 16%
- Inh. (%) of Wee1 kinase (Wee1 kinase (h); C 0.1 μm): 73%
- Inh. (%) of Wee1 kinase (Wee1 kinase (h); C 1 μm): 96%

SMILES: Cc1cc(Nc2ncc3c(=O)n(-c4c(Cl)cccc4Cl)n4ccnc4c3n2)ccc1N1C[C@@H](C)N(C(C)C)[C@@H](C)C1 [Example 34, 6-(2,6-dichlorophenyl)-2-((3-methyl-4-((3S,5R)-4-isopropyl-3,5-dimethylpiperazin-1-yl)phenyl)amino)imidazo[1,2-b]pyrimido[4,5-d]pyridazin-5(6H)-one]
- pIC50 (LoVo cells; LoVo): 6.63
- pIC50 (NCI-H1299 cells; NCI-H1299, 72 h): 6.66
- Inh. (%) of Wee1 kinase (Wee1 kinase (h); C 0.01 μm): 21%

SMILES: CN1CCN(c2ccc(Nc3ncc4c(=O)n(-c5c(Cl)cccc5Br)n5ccnc5c4n3)cc2Cl)CC1 [Example 47, 6-(2-bromo-6-chlorophenyl)-2-((3-chloro-4-(4-methylpiperazin-1-yl)phenyl)amino)imidazo[1,2-b]pyrimido[4,5-d]pyridazin-5(6H)-one]
- pIC50 (LoVo cells; LoVo cells, 3 d, MTT): 6.43
- pIC50 (NCI-H1299 cells; [1]): 6.25
- Inh. (%) of Wee1 kinase (Wee1 kinase (h); C 1 μm): 96%

SMILES: Cc1cn2c(n1)c1nc(Nc3ccc(N4CCN(C)CC4)c(Cl)c3)ncc1c(=O)n2-c1c(Cl)cccc1Cl [Example 57, 6-(2,6-dichlorophenyl)-2-((3-chloro-4-(4-methylpiperazin-1-yl)phenyl)amino)-9-methylimidazo[1,2-b]pyrimido[4,5-d]pyridazin-5(6H)-one]
- pIC50 (LoVo cells; LoVo cells, 3 d, MTT): 6.57
- pIC50 (NCI-H1299 cells; [1]): 6.76
- Inh. (%) of Wee1 kinase (Wee1 kinase (h); C 0.01 μm): 12%
- Inh. (%) of Wee1 kinase (Wee1 kinase (h); C 1 μm): 93%

SMILES: CN(C)C1CCN(c2ccc(Nc3ncc4c(=O)n(-c5c(Cl)cccc5Br)n5ccnc5c4n3)cc2Cl)CC1 [Example 48, 6-(2-bromo-6-chlorophenyl)-2-((3-chloro-4-(4-(dimethylamino)piperidin-1-yl)phenyl)amino)imidazo[1,2-b]pyrimido[4,5-d]pyridazin-5(6H)-one]
- pIC50 (LoVo cells; LoVo cells, 3 d, MTT): 6.64
- pIC50 (NCI-H1299 cells; [1]): 6.55
- Inh. (%) of Wee1 kinase (Wee1 kinase (h); C 0.01 μm): 23%
- Inh. (%) of Wee1 kinase (Wee1 kinase (h); C 1 μm): 93%

SMILES: Cc1cc(Nc2ncc3c(=O)n(-c4c(F)cccc4Br)n4ccnc4c3n2)ccc1N1CCC(N(C)C)CC1 [Example 45, 6-(2-bromo-6-fluorophenyl)-2-((3-methyl-4-(4-(dimethylamino)piperidin-1-yl)phenyl)amino)imidazo[1,2-b]pyrimido[4,5-d]pyridazin-5(6H)-one]
- pIC50 (LoVo cells; LoVo cells, 3 d, MTT): 6.48
- pIC50 (NCI-H1299 cells; [1]): 6.57
- Inh. (%) of Wee1 kinase (Wee1 kinase (h); C 0.01 μm): 12%

SMILES: CN1CCN(c2ccc(Nc3ncc4c(=O)n(-c5c(F)cccc5Cl)n5ccnc5c4n3)cc2)CC1 [Example 7, 6-(2-chloro-6-fluorophenyl)-2-((4-(4-methylpiperazin-1-yl)phenyl)amino)imidazo[1,2-b]pyrimido[4,5-d]pyridazin-5(6H)-one]
- pIC50 (LoVo cells; LoVo cells, 3 d, MTT): 6.08
- pIC50 (NCI-H1299 cells; [1]): 6.11
- Inh. (%) of Wee1 kinase (Wee1 kinase (h); C 1 μm): 92%

SMILES: Cc1cc(Nc2ncc3c(=O)n(-c4c(Cl)cccc4Cl)n4ccnc4c3n2)cc(Cl)c1N1CCN(C)CC1 [Example 29, 6-(2,6-dichlorophenyl)-2-((3-chloro-5-methyl-4-(4-methylpiperazin-1-yl)phenyl)amino)imidazo[1,2-b]pyrimido[4,5-d]pyridazin-5(6H)-one]
- pIC50 (LoVo cells; LoVo): 6.57
- pIC50 (NCI-H1299 cells; NCI-H1299, 72 h): 6.40
- Inh. (%) of Wee1 kinase (Wee1 kinase (h); C 0.01 μm): 21%
- Inh. (%) of Wee1 kinase (Wee1 kinase (h); C 0.1 μm): 65%
- Inh. (%) of Wee1 kinase (Wee1 kinase (h); C 1 μm): 93%

SMILES: CCc1cn2c(n1)c1nc(Nc3ccc(N4CCC(N(C)C)CC4)c(C)c3)ncc1c(=O)n2-c1c(Cl)cccc1Cl [Example 61, 6-(2,6-dichlorophenyl)-2-((3-methyl-4-(4-(dimethylamino)piperidin-1-yl)phenyl)amino)-9-ethylimidazo[1,2-b]pyrimido[4,5-d]pyridazin-5(6H)-one]
- pIC50 (LoVo cells; LoVo cells, 3 d, MTT): 6.45
- pIC50 (NCI-H1299 cells; [1]): 6.90
- Inh. (%) of Wee1 kinase (Wee1 kinase (h); C 0.01 μm): 12%

SMILES: Cc1cc(Nc2ncc3c(=O)n(-c4c(F)cccc4Cl)n4ccnc4c3n2)cc(C)c1N1CCN(C)CC1 [Example 11, 6-(2-chloro-6-fluorophenyl)-2-((3,5-dimethyl-4-(4-methylpiperazin-1-yl)phenyl)amino)imidazo[1,2-b]pyrimido[4,5-d]pyridazin-5(6H)-one]
- pIC50 (LoVo cells; LoVo cells, 3 d, MTT): 6.58
- pIC50 (NCI-H1299 cells; [1]): 6.26
- Inh. (%) of Wee1 kinase (Wee1 kinase (h); C 1 μm): 93%

SMILES: Cc1cc(Nc2ncc3c(=O)n(-c4c(Cl)cccc4Br)n4ccnc4c3n2)cc(F)c1N1CCC(N(C)C)CC1 [Example 50, 6-(2-bromo-6-chlorophenyl)-2-((3-fluoro-5-methyl-4-(4-(dimethylamino)piperidin-1-yl)phenyl)amino)imidazo[1,2-b]pyrimido[4,5-d]pyridazin-5(6H)-one]
- pIC50 (LoVo cells; LoVo cells, 3 d, MTT): 6.49
- pIC50 (NCI-H1299 cells; [1]): 6.30
- Inh. (%) of Wee1 kinase (Wee1 kinase (h); C 1 μm): 94%

SMILES: Cc1cc(Nc2ncc3c(=O)n(-c4c(F)cccc4Cl)n4ccnc4c3n2)ccc1N1CCN(C)CC1 [Example 9, 6-(2-chloro-6-fluorophenyl)-2-((3-methyl-4-(4-methylpiperazin-1-yl)phenyl)amino)imidazo[1,2-b]pyrimido[4,5-d]pyridazin-5(6H)-one]
- pIC50 (LoVo cells; LoVo cells, 3 d, MTT): 6.67
- pIC50 (NCI-H1299 cells; [1]): 6.55
- Inh. (%) of Wee1 kinase (Wee1 kinase (h); C 0.01 μm): 14%
- Inh. (%) of Wee1 kinase (Wee1 kinase (h); C 1 μm): 97%

SMILES: Cc1cc(Nc2ncc3c(=O)n(-c4c(C)cccc4F)n4ccnc4c3n2)ccc1N1CCN(C)CC1 [Example 14, 6-(2-fluoro-6-methylphenyl)-2-((3-methyl-4-(4-methylpiperazin-1-yl)phenyl)amino)imidazo[1,2-b]pyrimido[4,5-d]pyridazin-5(6H)-one]
- pIC50 (LoVo cells; LoVo cells, 3 d, MTT): 6.06
- pIC50 (NCI-H1299 cells; [1]): 6.23
- Inh. (%) of Wee1 kinase (Wee1 kinase (h); C 1 μm): 93%

SMILES: Cc1cc(Nc2ncc3c(=O)n(-c4c(Cl)cccc4Cl)n4ccnc4c3n2)cc(F)c1N1CCN(C)CC1 [Example 28, 6-(2,6-dichlorophenyl)-2-((3-fluoro-5-methyl-4-(4-methylpiperazin-1-yl)phenyl)amino)imidazo[1,2-b]pyrimido[4,5-d]pyridazin-5(6H)-one]
- pIC50 (LoVo cells; LoVo): 6.57
- pIC50 (NCI-H1299 cells; NCI-H1299, 72 h): 6.53
- Inh. (%) of Wee1 kinase (Wee1 kinase (h); C 0.01 μm): 15%
- Inh. (%) of Wee1 kinase (Wee1 kinase (h); C 1 μm): 95%
